Experimental data as given in paper PMC7277094 (Biomolecules, 2020).
Values joined by “and” are separate entries in the source; they are usually repeats but may differ in a detail not shown here. Equal entries are not always repeated. Where two headings read alike, the source gives them in different places.

Key:
[1] = target: T1, Tlp3 LBD (Campylobacter jejuni subsp. jejuni, UniProt Q0P864); experiment: Fluorescence-based thermal shift assay; type: binding, C. jejuni strain NCTC 11168; details: for ΔTm at 5000 µM: read-out: Thermal Shift ∆Tm; for Thermal Shift ∆Tm: 20 μM protein, 0.8–1.6 mM Biolog compound, Tm free protein 56.3 °C
T1 sequence (Q0P864 entry or part of it): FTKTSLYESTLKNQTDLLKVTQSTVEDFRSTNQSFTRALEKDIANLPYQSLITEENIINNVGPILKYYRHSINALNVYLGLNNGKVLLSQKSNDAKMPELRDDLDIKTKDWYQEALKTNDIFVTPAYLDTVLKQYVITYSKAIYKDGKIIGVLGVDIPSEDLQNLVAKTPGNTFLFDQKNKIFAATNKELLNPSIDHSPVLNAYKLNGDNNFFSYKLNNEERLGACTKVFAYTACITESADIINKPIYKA
Excerpt: Tlp3 LBD from C. jejuni strain NCTC 11168 was expressed in E. coli, purified according to the previously published procedure and used for high-throughput screening against the compounds from the Biolog Phenotype Microarray (PM) libraries PM1, PM3B, and PM5 using thermal shift assays. […] Each plate contains 95 compounds and a negative control (water). Thermal-shift-based screening is based on the phenomenon that ligand-binding alters thermal stability of the protein, resulting in an increase or decrease in the protein’s melting temperature (Tm). Screening was performed by following the protocol previously described by McKellar et al., with minor modifications. The compounds in the Biolog PM plates were dissolved in 50 μL of water, yielding a final concentration of 10–20 mM (as indicated by the manufacturer). Each assay was performed in a 25 μL volume and contained 20 μM protein, 0.8–1.6 mM Biolog compound, 10 mM Tris-HCl pH 8.0, 150 mM NaCl, and 10× SYPRO orange reagent (5000× stock, catalogue number S5692; Sigma-Aldrich). The samples were heated from 35 °C to 80 °C at a ramp rate of 0.5 °C min^−1 using a Rotor-Gene Q real-time PCR cycler (Qiagen, Venlo, Netherlands). Protein denaturation was monitored by following changes in the SYPRO Orange fluorescence emission (λex 530 nm/λem 555 nm) that result from the dye binding to the exposed hydrophobic protein regions. All experiments were performed in triplicate. The midpoint of denaturation (the melting temperature Tm) was calculated by fitting the data to the Boltzmann sigmoidal equation for the two-state unfolding model using GraphPad Prism (version 7.02) (GraphPad Software, La Jolla, CA, USA). The thermal shift assay with the three potential ligands identified using in silico screening was performed at a ligand concentration of 5 mM, with other conditions the same.

[2] = target: T1, Tlp3 LBD; experiment: Isothermal titration calorimetry (ITC); type: binding, C. jejuni strain NCTC 11168; details: for ∆H: ITC binding enthalpy; for ∆H / ∆S / Kd: 25 °C; for ∆S: ITC binding entropy; for Kd / Binding to Tlp3 LBD detected by ITC: 10 µM Tlp3 LBD; for Binding to Tlp3 LBD detected by ITC: ligand at 10 mM
Method: Tlp3 LBD was dialysed against a buffer containing 100 mM Tris-HCl pH 8.0 and 150 mM NaCl. […] Calorimetry measurements were conducted on a VP-ITC MicroCal calorimeter (Malvern Instruments, UK) at 25 °C. The Tlp3 LBD sample (10 µM) in a 1.45 mL reaction cell was titrated with 25 successive 10 µL injections of ligand solution at a spacing of 200 s. All measurements were made in triplicate and corrected for heat changes measured when the ligand was titrated into the buffer. The data were integrated and normalised for protein concentration to generate binding isotherms.

[3] = test system: C. jejuni WT strain; experiment: Nutrient-depleted hard agar plug chemotaxis assay, WT strain; type: cell-based, C. jejuni NCTC 11168; details: plugs prepared from 50–200 mM compound, CI > 1 attractant, < 1 repellent
[4] = test system: Tlp3 LBD; experiment: Co-crystallisation with Tlp3 LBD and X-ray electron density analysis; type: binding, C. jejuni; details: co-crystallised with 8 mM ligand; 1.4–1.5 Å resolution
Method: The solution was then clarified by centrifugation at 13,000 g, 4 °C for 20 min and protein crystallisation was carried out by the hanging drop vapour diffusion method using crystallisation conditions similar to those described previously. Briefly, crystals were grown in 2 µL hanging drops suspended over 500 µL reservoir solution containing 22% (w/v) polyethylene glycol 3350, 100 mM sodium citrate pH 5.0 and 200 mM ammonium sulphate. The hanging drop was prepared by adding 1 µL of the protein/ligand mix to 1 µL of the reservoir solution. Crystals of all Tlp3 LBD/ligand complexes had similar unit-cell parameters and belonged to space group P2_1 (Table 2), with two molecules in the asymmetric unit.
To perform data collection at cryogenic temperatures, the crystals were briefly soaked in a cryoprotectant solution consisting of 26% (w/v) polyethylene glycol 3350, 100 mM sodium citrate pH 5.0, 200 mM ammonium sulphate, 10% (v/v) glycerol, and 10 mM respective ligand, and then flash-cooled by plunging them into liquid nitrogen. X-ray diffraction data were collected at 100 K on the MX1 and MX2 beamlines of the Australian Synchrotron. The data were processed using iMOSFLM [65] and scaled with AIMLESS [66] from the CCP4 software suite.
The crystal structures were determined using molecular replacement with PHASER [68] and the protein coordinates of the Tlp3 LBD/isoleucine complex (PDB code, 4XMR) as a search model. The models were refined with PHENIX [69] and manually rebuilt where necessary using COOT [70]. Analysis of the stereochemical quality of the final models was performed using MOLPROBITY [71]. The accessible surface area was calculated using AREAIMOL from CCP4. The structure figures were produced using PyMOL 4.1 [72].

[5] = target: T1, Tlp3 LBD; design: method as in PMID 26457436; details: L-isoleucine not among ligands titrated here; listed as footnoted to previous study ref 32; cited from earlier work
[6] = test system: Tlp3 LBD Tyr118Ala; design: method as in PMID 26457436; details: Tyr118Ala vs wild-type Tlp3 LBD ref 32; cited from earlier work
[7] = test system: C. jejuni Δtlp3 mutant; experiment: Nutrient-depleted hard agar plug chemotaxis assay, Δtlp3 mutant; type: cell-based, C. jejuni NCTC 11168; details: CI > 1 attractant, < 1 repellent
[8] = single-site model, NB = no binding detected by ITC

Compound	∆H [2]	∆S [2]	Kd [2, 8]	Thermal Shift ∆Tm [1]	Binding to Tlp3 LBD detected by ITC [2]	further results
CCC[C@@H](C)C(N)C(=O)O (stereo in doubt) [β-methyl-L-norleucine]	-6.2 ± 0.2 kcal/mol	−4.77 cal mol^−1 deg^−1	294 ± 14 µM			ΔTm at 5000 µM [1]: 3.7 ± 0.2 °C
Nc1ccn([C@H]2C[C@H](O)[C@@H](CO)O2)c(=O)n1 [2-deoxycytidine]				1.4 ± 0.8 °C	no binding	
CCC(C)(C)[C@H](N)C(=O)O [3-methyl-L-isoleucine]	-5.7 ± 0.2 kcal/mol	−4.03 cal mol^−1 deg^−1	484 ± 30 µM			ΔTm at 5000 µM [1]: 2 ± 0.1 °C; Reduction of binding affinity (two methyl groups at Position 3) ([2]; compared with single methyl substitution at Position 3 (L-isoleucine)): at least 5 fold
CC(C)[C@H](C)[C@H](N)C(=O)O [4-methyl-L-isoleucine]	-5.1 ± 0.2 kcal/mol	−1.01 cal mol^−1 deg^−1	324 ± 20 µM			ΔTm at 5000 µM [1]: 2.8 ± 0.3 °C
C[C@H](N)C(=O)N[C@H](C(=O)O)[C@H](C)O [Ala-Thr]				1.1 ± 0.3 °C	no binding	
C[C@H](N)C(=O)O [L-alanine]	-150.2 ± 54.5 kcal/mol	−495.50 cal mol^−1 deg^−1	4980 ± 917 µM	−0.6 ± 0.7 °C		Chemotactic response (chemotactic index CI) [3]: Tlp3-dependent attractant response; Kd ([2]; 50 mM ligand): ~5000 µM and 5000 µM
N=C(N)NCCC[C@H](N)C(=O)O [L-arginine]					no binding	Electron density for ligand bound to Tlp3 LBD in crystal [4]: no electron density
N[C@@H](CC(=O)O)C(=O)O [L-aspartic acid]					no binding	Electron density for ligand bound to Tlp3 LBD in crystal [4]: no electron density
CC[C@H](C)[C@H](N)C(=O)O [L-isoleucine]						∆H [5]: -4.4 ± 0.2 kcal/mol; ∆S [5]: 3.6 cal mol^−1 deg^−1; Reduction in binding affinity on Tyr118Ala substitution [6]: ≥ 35 fold
CC(C)C[C@H](N)C(=O)O [L-leucine]	-4.6 ± 0.1 kcal/mol	2.9 cal mol^−1 deg^−1	105 ± 6 µM	2.4 ± 0.2 °C		
NCCCC[C@H](N)C(=O)O [L-lysine]					no binding	Electron density for ligand bound to Tlp3 LBD in crystal [4]: no electron density
N[C@@H](Cc1ccccc1)C(=O)O [L-phenylalanine]	-5.9 ± 0.3 kcal/mol	−5.44 cal mol^−1 deg^−1	730 ± 55 µM	−0.3 ± 0.4 °C		Chemotactic response (chemotactic index CI) [3]: Tlp3-dependent attractant response
CC(C)[C@H](N)C(=O)O [L-valine]	-4.4 ± 0.2 kcal/mol	0.8 cal mol^−1 deg^−1	405 ± 27 µM	1.3 ± 0.1 °C		
O=C(O)CC(O)C(=O)O (stereo not drawn) [malic acid]						Electron density for ligand bound to Tlp3 LBD in crystal [4]: no electron density
COC(=O)C(C)=O [methyl pyruvate]				−1.8 ± 0.0 °C	no binding	
c1ncc2nc[nH]c2n1 [purine]					did not bind	
N[C@@H](CO)C(=O)O [serine, L-serine]						Chemotactic response (chemotactic index CI) [7]: did not affect
CCC[C@@H](N)C(=O)O [α-amino-N-valeric acid]	-6.5 ± 0.2 kcal/mol	−4.5 cal mol^−1 deg^−1	168 ± 9 µM	1.4 ± 0.3 °C		
